# According to ChEMBL document CHEMBL1157539, “Thousands of chemical starting points for antimalarial lead identification” (Nature, 2010):
# System: Plasmodium falciparum
# Assay: GSK_TCMDC: Inhibition of Plasmodium falciparum 3D7 in whole erythrocytes, using parasite LDH activity as an index of growth.
# Assay type: functional, organism-based
# Settings: not given
row,SMILES,XC50 [µM]
1,O=C(C=Cc1ccccc1C(F)(F)F)NC1CCC(CN2CCC(c3c[nH]c4ccccc34)CC2)CC1 (stereo not drawn),0.902

# Same assay, conditions: Plasmodium falciparum, 3D7
row,SMILES,XC50 [µM]
1,CNC(=O)c1cc(S(=O)(=O)N2CCN(c3ccccn3)CC2)cs1,0.669
2,CCN(CC)/C(=N/C(=N)Nc1ccc(Cl)c(Cl)c1)NCCCCCCN/C(=N\C(=N)Nc1ccc(Cl)c(Cl)c1)N(CC)CC,0.761
3,N#Cc1ccc(N[C@@H](CC2CCCCC2)C(=O)NCc2cc(Cl)cc(Cl)c2)c2ccccc12,1.1
4,O=S(=O)(c1c(Cl)cc(Cl)cc1Cl)N1CCCCC(c2ccc(Cl)cc2)=N1,0.402
5,CC(C)NCc1ccc(-c2cccc(NC(=O)c3ccc(F)cc3)c2)cc1,0.881
6,CCCN(CCCN(CCCN(CCC)C(C)C)c1cc(C)nc(Nc2ccc(Cl)cc2)n1)C(C)C,0.113
7,COc1ccc2nccc(C(=O)NC3CCC(CCN4CCc5cc(C#N)ccc5C4)CC3)c2c1 (stereo not drawn),1.16
8,Fc1ccc2[nH]c(-c3ccc(-c4ccc(CNCCc5ccncc5)cc4)cc3)nc2c1,0.142
9,Cc1c(-c2cccc(C(C)(C)NC3CCN(Cc4ccccc4)CC3)c2)cnc(N)c1C,0.579
10,CC(C)c1cc(Oc2c(I)cc(CCCc3ncc[nH]3)cc2I)ccc1O,1.12
11,O=C(NC1CCN(Cc2ccc3c(c2)OCCO3)CC1)c1ccc(-c2cccc(C(F)(F)F)c2)s1,1.83
12,Cc1cc(NC(=O)c2ccco2)ccc1OC1CCN(Cc2ccccc2)CC1,0.531
13,Cn1cnc2c(SCc3ccc(OCc4ccccc4)cc3)ncnc21,0.557
14,CCCCNC(=O)[C@H](CC1CCCCC1)NC(=O)c1ccc(O)c(-c2ccc(Cl)c(Cl)c2)c1,0.164
15,CC(C)(C)c1ccc(C(=O)NC2CCC(CCN3CCc4ccc(S(C)(=O)=O)cc4CC3)CC2)cc1C(F)(F)F (stereo not drawn),1.22
16,CCc1cn2c3c(cc(C(=O)N[C@@H](Cc4cc(F)cc(F)c4)[C@H](O)CNC4CC4)cc13)N(C)S(=O)(=O)CC2,0.119
17,CCN(CC)CCN(Cc1ccc(-c2ccc(C(F)(F)F)cc2)cc1)C(=O)CN1C(CCc2cccc(F)c2F)=NS(=O)(=O)c2ccccc21,0.237
18,O=c1c(Br)c(C(F)(F)F)[nH]c2ccc(Oc3ccccc3)cc12,1.1
19,Cc1ccc(-n2c(=O)c3cccnc3n2CC(=O)Nc2cccc(C)c2C)cc1,0.865
20,O=C(C=Cc1ccccc1C(F)(F)F)NC1CCC(CN2CCC(c3c[nH]c4ccccc34)CC2)CC1 (stereo not drawn),0.677
21,O=C(NCC1CCC(CNCCCc2ccccc2)CC1)c1cc(Cl)cc(Cl)c1 (stereo not drawn),0.846
22,Cn1ncc2ccc(Nc3nccc(-c4ccc5c(c4)c(N)nn5C)n3)cc21,0.648
23,CC1CCNc2ccc(Cc3cnc(N)nc3N)cc21 (stereo not drawn),1.04
24,Cc1cc(N(C)CCCN(C)C)nc(Nc2ccc(Cl)cc2)n1,1.02
25,c1cnc2ccc(NCc3ccc(-c4ccc(CNC5CCCC5)cc4)cc3)cc2c1,0.874

row,SMILES,XC50 [µM]
1,CC(C)CCC[C@@H]([C@@H](CC1CCCCC1)C(=O)N[C@@H](CCCCNC(=O)OCc1ccccc1)C(=O)Nc1nccs1)N(O)C=O,0.457
2,O=C(NCCc1ccccc1)N(Cc1ccccc1-c1cccc(CNCc2ccc3c(c2)OCO3)c1)C1CCN(Cc2ccccc2)CC1,0.987
3,COc1ccc2nccc(NCC3(O)CCN(CCc4ccc5c(c4)OCCO5)CC3)c2n1,0.597
4,Cc1ccc(Nc2nccc(NCC(O)c3cccc(C)c3)n2)cc1 (stereo not drawn),1.02
5,COc1ccc2c(=O)ccn(CCN3CCC(NCc4ccc5c(n4)NC(=O)CS5)CC3)c2c1,0.233
6,O=C(Nc1cccc(C(F)(F)F)c1)Nc1ccc(Cl)c(C(F)(F)F)c1,0.89
7,NC(=O)c1ccc(NCC(=O)Nc2cccc(-c3cccc(-c4nc5ccccc5[nH]4)c3)c2)cc1,0.987
8,COc1ccc(Cl)cc1NC(=O)C(C)Nc1ccc(-c2ccccc2)cc1 (stereo not drawn),0.556
9,CCN(Cc1ccccc1)C1CCN(Cc2cc(Br)ccc2O)CC1,0.823
10,Nc1nc(N)c2cc(Cc3ccc([N+](=O)[O-])cc3)cnc2n1,0.943
11,CC(C)CC1c2[nH]c3ccccc3c2CCN1C(=O)CCc1ccccc1 (stereo not drawn),0.965
12,COc1ccc2[nH]cc(C3CCN(Cc4ccc(NC(=O)c5ccc(-c6ccccc6)cc5)cc4)CC3)c2c1,0.765
13,O=C1CN(C(=O)CCC2CCCC2)C(c2ccc(F)cc2)c2cc(F)ccc2N1 (stereo not drawn),0.168
14,CN(Cc1cccc(O)c1)C1CCN(c2cc(NC(=O)c3ccc(F)cc3)ccn2)C1 (stereo not drawn),1.15
15,COc1cccc2cc(C(=O)N[C@@H](CC(C)C)C(=O)N[C@H](C=NN(C)C(=O)OC(C)(C)C)Cc3ccccc3)oc12,0.262
16,CC[C@H]1CN2CCc3cc(OC)c(OC)cc3[C@@H]2C[C@@H]1C[C@H]1NCCc2c1cc(OC)c(O)c2Cl,0.144
17,O=C(Nc1ccc2c(c1)CCN2C1CCN(Cc2ccc(O)cc2)C1)c1ccco1 (stereo not drawn),0.897
18,O=C(/C=C/c1ccc(Cl)cc1)NCCCCCN1CCC(C(=O)Nc2cccc(Cl)c2)CC1,0.853
19,CC(C)Oc1ccc2c(c1)OC(c1ccccc1)(C(F)(F)F)NC2=O (stereo not drawn),0.136
20,CN(C)CCN(C)Cc1ccc(-c2cccc(-c3nc4ccccc4[nH]3)c2)cc1,0.751
21,CC(C)C(=O)NC(c1ccc(N(C)C)cc1)c1cc(Cl)c2cccnc2c1O (stereo not drawn),0.859
22,CCCCN(C)CC#Cc1ccc(-c2ccc3[nH]c(C)c(Br)c(=O)c3c2)cn1,0.647
23,N#Cc1ccc2c(c1)CN(CCC1CCC(NC(=O)c3cc4cc(OC(F)(F)F)ccc4[nH]3)CC1)CC2 (stereo not drawn),0.777
24,CCOc1ccc(C=CC(=O)Nc2ccc3nc(N4CCOCC4)cc(C)c3c2)cc1OC,0.901
25,CC(C)(C)c1ccc(NC(=O)c2cccc(CN3CCN(Cc4cccc(O)c4)CC3)c2)cc1,1.4

row,SMILES,XC50 [µM]
1,CC1(CCc2ccccc2)N=C(N)N(Cc2ccccc2)C(=O)C1c1ccc(Cl)c(Cl)c1 (stereo not drawn),0.805
2,CCCCCCNC(=N)c1ccc2[nH]c(-c3ccc(O)cc3)nc2c1,0.19
3,CCCCCCCc1c(C)[nH]c2ccc(F)cc2c1=O,0.289
4,CCNc1cc(C(=O)N[C@@H](Cc2ccccc2Cl)[C@H](O)CNC(C)CCCC(C)C)cc(N2CCCCS2(=O)=O)c1 (stereo partly drawn),0.928
5,Cc1cccc(C(=O)Nc2ccnc(N3CCC(N(C)Cc4cccc(C#N)c4)CC3)c2)c1,1.1
6,COc1cc(NC2CCCC(NCc3cn(S(=O)(=O)c4ccccc4)c4ccccc34)C2)nc2ccccc12 (stereo not drawn),0.248
7,O=C(N[C@@H](Cc1ccccc1)[C@H](O)CNCCC(F)(F)F)c1cccc(OCC2CC2)c1,0.616
8,Cc1cc(OCCN2CCCCC2)ccc1NC(=O)c1cccc2c(=O)n(Cc3ccc(Cl)cc3)cnc12,1.06
9,COc1cc(NCCCNC(=O)c2cc3c(Cl)cc(Cl)cc3[nH]2)nc2ccccc12,0.144
10,Cc1cc2nc(-c3ccc(C(=O)NC4CCN(Cc5ccccc5)CC4)s3)[nH]c2cc1C,0.771
11,Cc1ccccc1C1CCN(C2CCC(NC(=O)c3ccc(-c4ccccn4)s3)CC2)CC1 (stereo not drawn),1.18
12,O=C(Nc1ccccc1)c1ccc(-c2cc3ccncc3cc2OC2CCNCC2)s1,0.654
13,O=c1cc(NCCCNCc2ccc(Cl)c(Cl)c2)[nH]c2cc(F)cc(F)c12,0.675
14,CCCCCCCc1c(C)nc2ccccc2c1O,0.206
15,O=C(Nc1cccc(-c2ccc(-c3nc4cc(F)ccc4[nH]3)s2)c1)c1cccnc1,0.608
16,N#Cc1ccc(C=NNc2nc3ccccc3[nH]2)cc1,1
17,CCCC(C)NC[C@@H](O)[C@H](Cc1ccccc1)NC(=O)c1cc(C2CCCC2)cc(N2CCCCS2(=O)=O)c1 (stereo partly drawn),0.147
18,CCN(CC)CCN(Cc1ccc(-c2ccc(Cl)cc2)cc1)C(=O)Cn1c(CCc2cccc(F)c2F)nc(=O)c2ccccc21,0.769
19,N#Cc1ccccc1N1CCN(C2CCC(NC(=O)c3n[nH]c4cc(C(F)(F)F)ccc34)CC2)CC1 (stereo not drawn),1.37
20,N#Cc1ccc(CN2CCCN(Cc3cccc(NC(=O)c4ccc(Cl)c(Cl)c4)c3)CC2)cc1,0.85
21,CS(=O)(=O)c1cccc(-c2cnc(N)c3cc(-c4ccc5c(c4)OCO5)ccc23)c1,1.04
22,O=C(NC1CCCC1)c1cc2c(=O)n3ccccc3nc2[nH]/c1=N/CCc1ccccc1,0.649
23,O=C(Nc1cc(Cl)ccc1Cl)N[C@H]1CCN(CCCCCNC(=O)C2CC2c2ccc(Cl)c(Cl)c2)C1 (stereo partly drawn),0.77
24,CN(CCCNCc1cccc2ccccc12)CCCNCc1cccc2ccccc12,0.722
25,CCn1c(-c2nonc2N)nc2c(-c3cccc(NC(=O)Nc4ccc(Cl)cc4)c3)ncc(OCCCN)c21,0.828

row,SMILES,XC50 [µM]
1,N=C(N)NN=CC(=O)Nc1cc([N+](=O)[O-])cc([N+](=O)[O-])c1,0.628
2,Clc1cccc(CNC2CCN(CC3CCCCC3)CC2)c1,0.912
3,Cc1ccccc1C1CCN(c2ncc(C(=O)NC3CC3)cc2Cl)CC1,0.697
4,COc1cc2ncnc(Nc3ccc(OCc4ccccc4Br)c(Cl)c3)c2cc1OC,1.28
5,c1cc(CNC2CCCC2)cc(-c2ccc(CNc3ccc4ncccc4c3)cc2)c1,0.773
6,CC(=O)Nc1ccc(OCCN(CC(C)(C)C)c2ccc(C#N)c(C(F)(F)F)c2)c(Cl)c1,0.493
7,COc1c(C2CCN(CCCCNC(=O)c3ccc(-c4ccc(Cl)cc4)c(OCC(N)=O)c3)CC2)ccc2c1CCCC2,1.01
8,CCc1cccc2c(C#N)cn(CC(=O)NCCc3ccccc3)c12,0.887
9,COc1ccc2nc(-c3ccccc3)cc(N/N=C/c3ccc([N+](=O)[O-])o3)c2c1,0.202
10,COc1ccc2nccc([C@@H](O)CN3CCC(NCc4ccc5c(c4)NC(=O)CS5)CC3)c2n1,0.747
11,COc1cccc(C(=O)N2CCN(Cc3cccc(NC(=O)c4cccs4)c3)CC2)c1,0.483
12,CC(C)(C)c1cc(C(=O)N2CCN(c3ncnc4ccsc34)CC2)n(Cc2ccccc2)n1,0.907
13,CC(C)(C)C1CC(=O)CC2C(=O)N(C3CCCCC3)C(=O)C21 (stereo not drawn),0.421
14,Cc1ccc(NC(=O)NC2CCN(c3ccnc4cc(Cl)ccc34)CC2)cc1,0.315
15,CCN(C)CCCn1c(N(C)C)nc2cc(-n3cnc4cc(-c5ccc(Cl)cc5)sc4c3=O)ccc21,1.09
16,CC[C@H]1CN2CC[C@@H]1C[C@H]2[C@H](O)c1cc(N2CCC(O)(c3ccccc3)CC2)nc2ccc(OC)cc12,0.09
17,Cn1c(=O)c(-c2c(Cl)cccc2Cl)cc2cnc(Nc3ccc(N4CCOCC4)cc3)nc21,0.161
18,Cc1cc(Br)c(OCCCON2C(=N)N=C(N)NC2(C)C)c(Br)c1,0.0032
19,CC(C)CCNC(=O)C1Cc2c([nH]c3ccc(Br)cc23)C2(CCN(CCc3ccccc3)CC2)N1 (stereo not drawn),0.688
20,CC(C)(C)c1ccc(CNC(=O)c2cc(CNC3CCNCC3)ccc2O)cc1,0.71
21,Cc1nc(N)nc(N)c1-c1ccc2ccccc2c1,0.868
22,CC(C)CCN1CCC(Oc2ccc(NC(=O)c3cccs3)cc2Cl)C1 (stereo not drawn),1.1
